# Reference: patent publication US20240327382A1 (ALMAC DISCOVERY LIMITED, priority 2021, published 2024)
# Biological target: T1, Full-length USP19 (Homo sapiens, UniProt O94966)
# T1 construct: Full-length USP19 was purchased from Boston Biochem (E-576); purchased Boston Biochem E-576
# T1 sequence (O94966 1-1318): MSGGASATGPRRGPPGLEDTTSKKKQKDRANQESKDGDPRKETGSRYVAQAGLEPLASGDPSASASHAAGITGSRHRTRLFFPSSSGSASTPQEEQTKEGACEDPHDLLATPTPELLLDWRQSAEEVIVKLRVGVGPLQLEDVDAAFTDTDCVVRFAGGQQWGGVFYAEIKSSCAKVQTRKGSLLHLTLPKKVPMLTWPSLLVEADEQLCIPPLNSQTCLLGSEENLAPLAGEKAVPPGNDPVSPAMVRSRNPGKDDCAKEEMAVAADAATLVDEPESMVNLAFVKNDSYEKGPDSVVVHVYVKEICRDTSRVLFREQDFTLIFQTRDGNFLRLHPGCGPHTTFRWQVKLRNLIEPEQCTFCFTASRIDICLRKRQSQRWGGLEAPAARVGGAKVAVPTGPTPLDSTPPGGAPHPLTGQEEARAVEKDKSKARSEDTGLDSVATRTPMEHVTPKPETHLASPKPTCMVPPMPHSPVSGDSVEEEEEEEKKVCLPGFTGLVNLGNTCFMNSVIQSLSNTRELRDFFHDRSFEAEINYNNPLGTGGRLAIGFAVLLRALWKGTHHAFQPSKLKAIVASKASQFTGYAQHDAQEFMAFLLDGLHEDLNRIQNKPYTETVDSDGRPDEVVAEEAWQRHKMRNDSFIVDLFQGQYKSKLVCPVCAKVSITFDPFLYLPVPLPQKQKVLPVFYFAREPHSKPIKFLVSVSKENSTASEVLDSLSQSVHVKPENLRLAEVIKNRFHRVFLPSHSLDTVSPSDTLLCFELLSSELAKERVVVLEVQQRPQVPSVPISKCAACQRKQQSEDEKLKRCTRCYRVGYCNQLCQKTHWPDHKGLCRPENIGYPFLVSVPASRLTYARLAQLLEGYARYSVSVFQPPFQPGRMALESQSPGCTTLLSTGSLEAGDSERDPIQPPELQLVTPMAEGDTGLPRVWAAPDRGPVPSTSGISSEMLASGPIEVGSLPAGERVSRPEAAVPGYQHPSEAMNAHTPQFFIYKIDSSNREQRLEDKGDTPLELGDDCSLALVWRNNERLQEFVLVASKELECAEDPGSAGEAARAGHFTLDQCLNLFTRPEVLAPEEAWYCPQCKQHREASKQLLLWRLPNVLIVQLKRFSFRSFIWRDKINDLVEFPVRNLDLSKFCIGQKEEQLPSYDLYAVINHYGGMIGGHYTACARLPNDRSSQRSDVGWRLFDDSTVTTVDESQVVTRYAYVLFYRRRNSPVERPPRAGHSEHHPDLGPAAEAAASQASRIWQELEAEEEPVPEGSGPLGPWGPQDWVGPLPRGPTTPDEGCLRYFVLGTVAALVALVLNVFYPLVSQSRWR
# Assay: USP19 fluorescence polarisation (FP) assay, Ubiquitin-Lys-TAMRA substrate
# Format: biochemical
# Conditions: average of at least two duplicate experiments
# Summary of the method: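 Fluorescence polarisation (excitation 530 nm, parallel and perpendicular emission at 575 nm) was recorded every 15 min for 90 min after adding the ubiquitin-Lys-TAMRA isopeptide (500 nM as dispensed). Beforehand, the full-length enzyme (2.5 nM as dispensed) sat 30 min at RT with compound diluted from 200 μM to 2 μM in HEPES pH 7.4 buffer with 150 mM NaCl, 5 mM DTT, 0.05% BSA and 0.05% CHAPS. Values normalised to uninhibited wells gave IC50s by non-linear fitting, each the mean of two or more duplicate runs.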
row,IC50 [nM],Structure (SMILES)
1,< 10,"CN[C@@H]1CCN(C(=O)N2CC[C@@H](Cn3cnc(-c4ccccc4C)cc3=O)C3(CCCC3)C2)[C@H](c2ccccc2)C1 [Example 84, 3-(((R)-7-((2S,4R)-4-(Methylamino)-2-phenylpiperidine-1-carbonyl)-7-azaspiro[4.5]decan-10-yl)methyl)-6-(o-tolyl)pyrimidin-4(3H)-one]"
2,< 10,"CN[C@@H]1CCN(C(=O)N2CC[C@@H](Cn3ccc(-c4ccccc4OC)cc3=O)C3(CCCC3)C2)[C@H](c2cc(F)ccc2F)C1 [Example 113, 1-(((R)-7-((2S,4R)-2-(2,5-Difluorophenyl)-4-(methylamino)piperidine-1-carbonyl)-7-azaspiro[4.5]decan-10-yl)methyl)-4-(2-methoxyphenyl)pyridin-2(1H)-one]"
3,< 10,N[C@@H]1CCN(C(=O)N2CC[C@@H](Cn3cnc(-c4ccccc4)cc3=O)C3(CCCC3)C2)[C@H](c2ccccc2)C1 [Example 25]
4,< 10,"CN[C@@H]1CCN(C(=O)N2CC[C@@H](Cn3ccc(-c4ccccc4)cc3=O)C3(CCCC3)C2)[C@H](c2cc(F)cc(F)c2)C1 [Example 121, 1-(((R)-7-((2S,4R)-2-(3,5-Difluorophenyl)-4-(methylamino)piperidine-1-carbonyl)-7-azaspiro[4.5]decan-10-yl)methyl)-4-phenylpyridin-2(1H)-one]"
5,100 to 1000,"O=C(N1CCC(Cn2cnc(-c3ccccc3)cc2=O)CC1)N1CCNC[C@H]1c1ccccc1 [Example 1, (R)-6-Phenyl-3-((1-(2-phenylpiperazine-1-carbonyl)piperidin-4-yl)methyl)pyrimidin-4(3H)-one]"
6,< 10,"CN[C@@H]1CCN(C(=O)N2CC[C@@H](Cn3cnc4ccc(F)cc4c3=O)C3(CCCC3)C2)[C@H](c2cccc(F)c2F)C1 [Example 166, 3-(((R)-7-((2S,4R)-2-(2,3-Difluorophenyl)-4-(methylamino)piperidine-1-carbonyl)-7-azaspiro[4.5]decan-10-yl)methyl)-6-fluoroquinazolin-4(3H)-one]"
7,< 10,"CC1(N[C@@H]2CCN(C(=O)N3CC[C@@H](Cn4cnc(-c5ccccc5)cc4=O)C4(CCCC4)C3)[C@H](c3ccccc3)C2)CC1 [Example 151, 3-(((R)-7-((2S,4R)-4-((1-Methylcyclopropyl)amino)-2-phenylpiperidine-1-carbonyl)-7-azaspiro[4.5]decan-10-yl)methyl)-6-phenylpyrimidin-4(3H)-one]"
8,< 10,"CN[C@@H]1CCN(C(=O)N2CC[C@@H](Cn3cnc4ccc(Cl)cc4c3=O)C3(CCCC3)C2)[C@H](c2cc(F)ccc2F)C1 [Example 198, 6-Chloro-3-(((R)-7-((2S,4R)-2-(2,5-difluorophenyl)-4-(methylamino)piperidine-1-carbonyl)-7-azaspiro[4.5]decan-10-yl)methyl)quinazolin-4(3H)-one]"
9,< 10,"CN[C@@H]1CCN(C(=O)N2CC[C@@H](Cn3cnc(-c4ccccc4F)cc3=O)C3(CCCC3)C2)[C@H](c2ccc(F)cc2F)C1 [Example 141, 3-(((R)-7-((2S,4R)-2-(2,4-Difluorophenyl)-4-(methylamino)piperidine-1-carbonyl)-7-azaspiro[4.5]decan-10-yl)methyl)-6-(2-fluorophenyl)pyrimidin-4(3H)-one]"
10,< 10,"Cc1ccccc1-c1cc(=O)n(C[C@@H]2CCN(C(=O)N3CC[C@@H](N)C[C@H]3c3ccccc3)CC23CCCC3)cn1 [Example 77, 3-(((R)-7-((2,4R)-4-Amino-2-phenylpiperidine-1-carbonyl)-7-azaspiro[4.5]decan-10-yl)methyl)-6-(o-tolyl)pyrimidin-4(3H)-one]"
11,10 to 100,"N[C@@H]1CCN(C(=O)N2CCC(CN3CCOCC3=O)C3(CCCC3)C2)[C@H](c2ccccc2)C1 (stereo partly drawn) [Example 41, 4-((7-((2S,4R)-4-Amino-2-phenylpiperidine-1-carbonyl)-7-azaspiro[4.5]decan-10-yl)methyl) morpholin-3-one]"
12,10 to 100,"N[C@@H]1CCN(C(=O)N2CCC(Cn3cnc(C(F)(F)F)cc3=O)C3(CCCC3)C2)[C@H](c2ccccc2)C1 (stereo partly drawn) [Example 34, 3-((7-((2S,4R)-4-Amino-2-phenylpiperidine-1-carbonyl)-7-azaspiro[4.5]decan-10-yl)methyl)-6-(trifluoromethyl) pyrimidin-4(3H)-one]"
13,< 10,"CCN[C@@H]1CCN(C(=O)N2CC[C@@H](Cn3ccc(-c4ccccc4)cc3=O)C3(CCCC3)C2)[C@H](c2ccccc2)C1 [Example 45, 1-(((R)-7-((2S,4R)-4-(Ethylamino)-2-phenylpiperidine-1-carbonyl)-7-azaspiro[4.5]decan-10-yl)methyl)-4-phenylpyridin-2(1H)-one]"
14,< 10,"N[C@@H]1CCN(C(=O)N2CCC(Cn3cnc4c(cnn4C4CC4)c3=O)C3(CCCC3)C2)[C@H](c2ccccc2)C1 (stereo partly drawn) [Example 35, 5-((7-((2S,4R)-4-Amino-2-phenylpiperidine-1-carbonyl)-7-azaspiro[4.5]decan-10-yl)methyl)-1-cyclopropyl-1,5-dihydro-4H-pyrazolo[3,4-d] pyrimidin-4-one]"
15,< 10,"CN[C@@H]1CCN(C(=O)N2CC[C@@H](Cn3cnc(-c4ccccc4C)cc3=O)C3(CCCC3)C2)[C@H](c2cc(F)cc(F)c2)C1 [Example 146, 3-(((R)-7-((2S,4R)-2-(3,5-Difluorophenyl)-4-(methylamino)piperidine-1-carbonyl)-7-azaspiro[4.5]decan-10-yl)methyl)-6-(o-tolyl)pyrimidin-4(3H)-one]"
16,< 10,"CN[C@@H]1CCN(C(=O)N2CC[C@@H](Cn3cnc4ccc(F)cc4c3=O)C3(CCCC3)C2)[C@H](c2ccc(F)cc2F)C1 [Example 191, 3-(((R)-7-((2S,4R)-2-(2,4-Difluorophenyl)-4-(methylamino)piperidine-1-carbonyl)-7-azaspiro[4.5]decan-10-yl)methyl)-6-fluoroquinazolin-4(3H)-one]"
17,< 10,"CN[C@@H]1CCN(C(=O)N2CC[C@@H](Cn3cnc(-c4ccccc4F)cc3=O)C3(CCCC3)C2)[C@H](c2ccc(F)c(F)c2)C1 [Example 142, 3-(((R)-7-((2S,4R)-2-(3,4-Difluorophenyl)-4-(methylamino)piperidine-1-carbonyl)-7-azaspiro[4.5]decan-10-yl)methyl)-6-(2-fluorophenyl)pyrimidin-4(3H)-one]"
18,< 10,"CN[C@@H]1CCN(C(=O)N2CC[C@@H](Cn3ccc(-c4ccccc4OC)cc3=O)C3(CCCC3)C2)[C@H](c2ccccc2F)C1 [Example 118, 1-(((R)-7-((2S,4R)-2-(2-Fluorophenyl)-4-(methylamino)piperidine-1-carbonyl)-7-azaspiro[4.5]decan-10-yl)methyl)-4-(2-methoxyphenyl)pyridin-2(1H)-one]"
19,< 10,"O=C(N1CC[C@@H](Cn2cnc(-c3ccccc3)cc2=O)C2(CCCC2)C1)N1CC[C@@H](NCc2ncccn2)C[C@H]1c1cc(F)ccc1F [Example 169, 3-(((R)-7-((2S,4R)-2-(2,5-Difluorophenyl)-4-((pyrimidin-2-ylmethyl)amino)piperidine-1-carbonyl)-7-azaspiro[4.5]decan-10-yl)methyl)-6-phenylpyrimidin-4(3H)-one]"
20,10 to 100,"Cc1ccn(CC2CCN(C(=O)N3CC[C@@H](N)C[C@H]3c3ccccc3)CC23CCCC3)c(=O)c1 (stereo partly drawn) [Example 39, 1-((7-((2S,4R)-4-Amino-2-phenylpiperidine-1-carbonyl)-7-azaspiro[4.5]decan-10-yl)methyl)-4-methylpyridin-2(1H)-one]"
21,< 10,"CN[C@@H]1CCN(C(=O)N2CC[C@@H](Cn3cnc(-c4ccccc4OC)cc3=O)C3(CCCC3)C2)[C@H](c2ccc(F)c(F)c2)C1 [Example 138, 3-(((R)-7-((2S,4R)-2-(3,4-Difluorophenyl)-4-(methylamino)piperidine-1-carbonyl)-7-azaspiro[4.5]decan-10-yl)methyl)-6-(2-methoxyphenyl)pyrimidin-4(3H)-one]"
